{"source": "ChEMBL document CHEMBL1133235", "about": "“Kinetic characterisation of ene-diol-based inhibitors of alpha-amylase” (Bioorg Med Chem Lett, 2000)", "tested_on": "alpha-amylase (Hordeum vulgare)", "experiment": "Percent inhibition of Alpha-amylase activity was determined at 5 mM", "details": "malt", "data": [{"compound": "O=C(O)/C(O)=C(\\O)C(=O)O", "values": [{"measurement": "inhibition", "result": 92, "unit": "%"}]}]}
